From PMC12786078, “Identification of Novel JAK2 Inhibitors from Amino Derivatives of Epoxyalantolactone: In Silico and In Vitro Studies” (International Journal of Molecular Sciences, 2025)
“And” between values parts separate entries of the source, which are not always exact repeats. Equal values may be shown once. Read-outs that look alike come from different tables or passages of the source.

Tests used:
HeLa cells [1] = assay: DCFH2-DA intracellular ROS assay; assay type: cell-based, human
Procedure: After 24 h, the cells were incubated with 100 µL of 10 µM DCFH2-DA (Sigma-Aldrich) diluted in Hank’s Balanced Salt Solution (HBSS) at 37 °C for 30 min in the dark. […] At the end of the treatment, cells were washed twice with cold phosphate-buffered saline (PBS), and 200 µL of 1% Triton X-100 in 0.3 M NaOH was added to lyse the cells.

L929 fibroblasts = assay: MTT cytotoxicity assay; conditions: read-out: IC50 L929
Procedure: (§1) Human cervical adenocarcinoma (HeLa), hepatocellular carcinoma (HepG2) and mouse fibroblast (L929) cells were cultured in Dulbecco’s Modified Eagle’s Medium (DMEM) containing 10% fetal bovine serum (FBS), 100 U/mL penicillin G, and 100 μg/mL streptomycin. Human neuroblastoma (SH-SY5Y) cells were maintained in DMEM/F-12 medium with the same supplements. All cultures were incubated at 37 °C in a humidified atmosphere of 5% CO2.
(§2) Cells were seeded in 96-well plates at a density of 5 × 10^3 cells per well in 100 µL of complete DMEM and incubated overnight at 37 °C in a humidified incubator with 5% CO2. […] After 48 h of treatment, 100 µL of MTT solution (0.5 mg/mL in serum-free medium) was added to each well and incubated for an additional 3 h at 37 °C. The supernatant was then removed, and 100 µL of DMSO was added to dissolve the resulting formazan crystals. Absorbance was measured at 570 nm using an EnSight Multimode Microplate Reader (PerkinElmer, Waltham, MA, USA). IC50 values were calculated using nonlinear regression analysis in GraphPad Prism version 9.

HeLa cells [2] = assay: MTT cytotoxicity assay; conditions: 48 h
Procedure: as §1, §2

[3] = test system: SH-SY5Y neuroblastoma cells; assay: MTT cytotoxicity assay; conditions: 48 h, read-out: IC50 SH-SY5Y
Procedure: as §1, §2

[4] = Annexin V-FITC/PI apoptosis detection by flow cytometry; conditions: human, HeLa cells
Procedure: (§3) HeLa cells were seeded in 6-well plates at a density of 3 × 10^5 cells per well in 2 mL of complete DMEM and allowed to adhere overnight. […] Following treatment, cells were harvested by trypsinization and washed twice with 1 mL of cold phosphate-buffered saline (PBS) to remove non-adherent and dead cells. The cell pellets were resuspended in 100 µL of binding buffer and stained with 5 µL of Annexin V-FITC and 5 µL of propidium iodide (PI, 0.05 µg/mL). The staining was performed in the dark at room temperature for 15 min. Apoptotic cell death was quantified by flow cytometry, with early and late apoptotic populations distinguished based on Annexin V-FITC and PI fluorescence signals.

HEK-293T cells = assay: MTT cytotoxicity assay; conditions: read-out: IC50 HEK-293T
Procedure: as §2

HepG2 cells = assay: MTT cytotoxicity assay; conditions: read-out: IC50 HepG2
Procedure: as §1, §2

JAK2 = target: T1, JAK2 (Homo sapiens, UniProt O60674); assay: JAK2 kinase assay (ADP-Glo); assay type: biochemical; conditions: 5 μM ATP, mean ± SEM, read-out: IC50, JAK2 kinase inhibition
T1 construct: purchased Sigma-Aldrich SRP0171
Procedure: For each reaction, 2.5 ng/μL of JAK2 enzyme (SRP0171, Sigma-Aldrich) was combined with 1 μM of the test compounds or known drugs, 5 μM ATP, and 2 ng/μL of poly(glu·tyr) substrate in a reaction buffer containing 40 mM Tris-HCl (pH 7.5), 20 mM MgCl2, and 0.1 mg/mL BSA. The reaction mixture was incubated at room temperature for 1 h. After incubation, 5 μL of the ADP-Glo reagent was added to each reaction, followed by an additional 40 min incubation. Next, 10 μL of the kinase detection reagent was added, and the reactions were incubated at room temperature for 30 min to convert ADP to ATP. Luminescence, reflecting ATP levels, was measured using an EnSight Multimode Microplate Reader. […] All assays were performed in triplicate, and the resulting data were presented as the relative inhibition (%) of inhibitors compared to the control without any inhibitor, as shown in Equation (1).(1) %Relative inhibition=[positive−negative−sample−negative]/(positive−negative)×100

HeLa cells [5] = assay: Annexin V-FITC/PI apoptosis detection by flow cytometry
Procedure: as §3

[6] = IC50 concentration of the compound
[7] = HeLa, 48 h, at IC50 (SL10 8 µM, SL35 6 µM, ruxolitinib 25 µM)

T1 sequence (O60674 808-1132 limits assumed): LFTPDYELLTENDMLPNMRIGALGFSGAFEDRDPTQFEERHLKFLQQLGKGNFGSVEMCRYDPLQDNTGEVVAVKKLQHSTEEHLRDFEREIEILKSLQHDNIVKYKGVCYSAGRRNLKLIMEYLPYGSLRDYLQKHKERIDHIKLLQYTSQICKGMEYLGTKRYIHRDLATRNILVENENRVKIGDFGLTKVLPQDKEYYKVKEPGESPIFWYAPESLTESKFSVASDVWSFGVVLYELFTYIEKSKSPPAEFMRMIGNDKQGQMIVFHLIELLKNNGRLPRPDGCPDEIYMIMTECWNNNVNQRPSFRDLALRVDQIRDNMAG

For `OO` [H2O2, hydrogen peroxide, reference compound], the “intracellular ROS level relative to control” value (HeLa cells [1]; 200 µM) was “approximately 1.7 fold”.
`N#CC[C@H](C1CCCC1)n1cc(-c2ncnc3[nH]ccc23)cn1` [Ruxolitinib, reference compound] showed an IC50 (L929 fibroblasts; Mus musculus, L929, 48 h) of 80.4 ± 2.33 µM, an IC50 (HeLa cells [2]; Homo sapiens, HeLa, read-out: IC50 HeLa, MTT, 48 h) of 25 ± 1.3 µM and an IC50 (HeLa cells [2]; read-out: IC50 HeLa, MTT) of 25 ± 1.25 µM. It also gave an IC50 ([3]; Homo sapiens, SH-SY5Y) of 68.63 ± 0.19 µM, a viability at 48 h, 25 µM [4] of 63.5 ± 2.17% and an IC50 (HEK-293T cells; Homo sapiens, HEK-293T) of 89.7 ± 1.98 µM. The IC50 (HepG2 cells; Homo sapiens, HepG2, 48 h) was 34.6 ± 2.56 µM.
Molecule `COc1ccc(CN2CC3C(=O)OC4CC5(C)CCCC(C)C5(O)C2C43)cc1OC` (stereo not drawn) [SL8] has an IC50 (L929 fibroblasts; MTT, 48 h) of 92.6 ± 2.87 µM, an IC50 (HeLa cells [2]; read-out: IC50 HeLa, MTT) of 88.2 µM and an IC50 ([3]; MTT) of 59.6 ± 2.84 µM. For the same molecule, the IC50 (JAK2) was 0.0871 ± 0.0026 µM, the IC50 (HEK-293T cells; MTT) was 90.7 ± 1.61 µM and the IC50 (HepG2 cells; MTT, 48 h) was 42.6 ± 2.14 µM.
For `CC1CCCC2(C)CC3OC(=O)C(CN4CCN(c5ccccc5)CC4)C3C3OC132` (stereo not drawn) [SL10], the IC50 (L929 fibroblasts; MTT, 48 h) was 25.4 µM, the “intracellular ROS level relative to control” value (HeLa cells [1]; [6]) was “approximately 1.4 fold” and the IC50 (HeLa cells [2]; read-out: IC50 HeLa, MTT) was 8.47 ± 0.74 µM. The IC50 ([3]; MTT) was 23.1 µM, the IC50 (JAK2) was 0.0127 µM and the early apoptosis (HeLa cells [5]; [7]) was 56.39 ± 2.21%. The late apoptosis (HeLa cells [5]; [7]) was 11.61 ± 0.99%, the viable cells (HeLa cells [5]; [7]) was 31.30 ± 2.21% and the IC50 (HEK-293T cells; MTT) was 14.5 ± 0.74 µM. It also gave an IC50 (HepG2 cells; MTT, 48 h) of 19.7 µM.
For `CC1CCCC2(C)CC3OC(=O)C(CN4CCN(c5ccc(F)cc5)CC4)C3C3OC132` (stereo not drawn) [SL14], the IC50 (L929 fibroblasts; MTT, 48 h) was 52.8 ± 1.92 µM, the IC50 (HeLa cells [2]; read-out: IC50 HeLa, MTT) was 13.2 µM and the IC50 ([3]; MTT) was 35.8 ± 2.13 µM. For the same molecule, the IC50 (JAK2) was 0.0576 ± 0.0012 µM, the IC50 (HEK-293T cells; MTT) was 50.9 ± 3.3 µM and the IC50 (HepG2 cells; MTT, 48 h) was 27.5 ± 0.73 µM.
`Cc1cccc(N2CCN(CC3C(=O)OC4CC5(C)CCCC(C)C56OC6C43)CC2)c1` (stereo not drawn) [SL31] showed an IC50 (L929 fibroblasts; MTT, 48 h) of 62.8 ± 3.39 µM, an IC50 (HeLa cells [2]; read-out: IC50 HeLa, MTT) of 13.7 µM and an IC50 ([3]; MTT) of 24.2 ± 1.69 µM. It also gave an IC50 (JAK2) of 0.0893 ± 0.0015 µM, an IC50 (HEK-293T cells; MTT) of 24.5 ± 1.12 µM and an IC50 (HepG2 cells; MTT, 48 h) of 19.62 ± 0.05 µM.
In the case of `CC1CCCC2(C)CC3OC(=O)C4CN(CCc5c[nH]c6ccccc56)C(C34)C12O` (stereo not drawn) [SL33], the IC50 (L929 fibroblasts; MTT, 48 h) is reported as 40.5 ± 2.22 µM, the IC50 (HeLa cells [2]; read-out: IC50 HeLa, MTT) is reported as 33.8 ± 2.8 µM and the IC50 (HeLa cells [2]; read-out: IC50 HeLa, MTT, listed as SLL33) is reported as 33.8 ± 2.78 µM. For the same molecule, the IC50 ([3]; MTT) was 58.6 ± 0.71 µM, the IC50 (JAK2) was 0.0791 ± 0.0018 µM and the IC50 (HEK-293T cells; MTT) was 29.3 ± 0.96 µM. It also gave an IC50 (HepG2 cells; MTT, 48 h) of 45.28 ± 0.41 µM.
For `CC1CCCC2(C)CC3OC(=O)C(CN4CCN(c5ncccn5)CC4)C3C3OC132` (stereo not drawn) [SL35], the IC50 (L929 fibroblasts; MTT, 48 h) was 23.1 µM, the “intracellular ROS level relative to control” value (HeLa cells [1]; [6]) was “around 2.0 fold” and the IC50 (HeLa cells [2]; read-out: IC50 HeLa, MTT) was 6.07 ± 0.11 µM. The IC50 ([3]; MTT) was 19.2 µM and 19.3 µM, the IC50 (JAK2) was 0.0217 µM and 0.0216 µM and the viable cells (HeLa cells [5]) was 66.19 ± 1.51%. It also gave an early apoptosis (HeLa cells [5]; [7]) of 26.30 ± 1.69%, a late apoptosis (HeLa cells [5]; [7]) of 5.20 ± 0.34% and an IC50 (HEK-293T cells; MTT) of 14.6 ± 1.05 µM. For the same molecule, the IC50 (HepG2 cells; MTT, 48 h) was 13.3 µM.
With `O=C1O[C@H]([C@@H](O)CO)C(O)=C1O` [Vitamin C, L-ascorbic acid, reference compound] the “intracellular ROS level relative to control” value (HeLa cells [1]; 200 µM) was “about 0.8 fold”.
